From US6630075B2, “Use of fluorinated ketones in fire extinguishing compositions” (3M Innovative Properties Company, priority 1999, dated 2003)

Test: Micro-Cup Burner Test (extinguishing concentration; Mass Ratio Calculation vs HALON 1211)
Settings: for Mass Ratio to HALON™ 1211: calculated from extinguishing volume % and molecular weight relative to HALON 1211 (165 g/mole); for Ext. Conc. (vol %): volume % in air required to extinguish the flame within an average time of 30 seconds or less, propane fuel
Excerpt: The Micro-Cup Burner Test is a laboratory test which measures the extinguishing ability of an agent based on the quantity of agent required to extinguish a fire under the following test conditions. The Micro-Cup Burner Test utilizes a quartz concentric-tube laminar-diffusion flame burner (micro-cup burner, of similar design to the above-described cup apparatus) aligned vertically with all flows upward. A fuel, typically propane unless otherwise specified, flows at 10.0 sccm (standard cubic centimeters per minute) through a 5-mm I.D. inner quartz tube which is centered in a 15-mm I.D. quartz chimney. The chimney extends 4.5 cm above the inner tube. Air flows through the annular region between the inner tube and the chimney at 1000 sccm. Prior to the addition of extinguishing composition, a visually stable flame is supported on top of the inner tube, and the resulting combustion products flow out through the chimney. An extinguishing composition to be evaluated is introduced into the air stream upstream of the burner. Liquid compositions are introduced by a syringe pump (which is calibrated to within 1%) and are volatilized in a heated trap. Gaseous compositions are introduced via a mass-flow controller to the air stream upstream from the burner. For consistency, the air-gaseous composition mixture then flows through the heated trap prior to its introduction to the flame burner. All gas flows are maintained by electronic mass-flow controllers which are calibrated to within 2%. The fuel is ignited to produce a flame and is allowed to burn for 90 seconds. After 90 seconds, a specific flow rate of composition is introduced, and the time required for the flame to be extinguished is recorded. The reported extinguishing concentrations are the recorded volume % of extinguishing composition in air required to extinguish the flame within an average time of 30 seconds or less.
The above-mentioned cup burner test measures the performance of an extinguishing composition by determining the minimum volume percent of composition in air required to extinguish a test fire. However, it is often desirable to directly compare the fire performance of an experimental extinguishing composition (e.g., a fluorinated ketone) against the performance of a state-of-the-art extinguishing composition, such as HALON™ 1211 fire extinguishing agent (CF2ClBr, a bromochlorofluorocarbon). One way to make such a comparison is to derive the mass ratio of experimental composition to HALON™ 1211 fire extinguishing agent from the volume percentages of each composition required for extinguishing. The mass ratio can be calculated by dividing the experimental composition's extinguishing volume percent by the HALON™ 1211 agent's extinguishing volume percent and multiplying the resulting quotient (which, according to the ideal gas law, also represents the ratio of mole percents) times the weight average molecular weight of the experimental composition divided by the molecular weight of HALON™ 1211 agent (165 g/mole).
In Comparative Example C1, the extinguishing concentration (volume % in air) of HALON™ 1211 fire extinguishing agent was determined as using the Micro-Cup Burner Test.
In Examples 1-16, the extinguishing concentration of several perfluorinated ketones was also determined using the Micro-Cup Burner Test. The mass ratio as compared to HALON™ 1211 fire extinguishing agent was then calculated using the Mass Ratio Calculation.
In Comparative Examples C2-C11, various fluorinated extinguishing compositions known in the art (hydrofluorocarbons, perfluorocarbons, hydrochlorofluorocarbons, hydrofluoroethers, and iodofluorocarbons) were evaluated for their extinguishing concentration, and subsequently their mass ratios were calculated with respect to HALON™ 1211 agent. […]

FC(F)(Cl)Br [Comparative Example C1, bromochlorodifluoromethane, reference compound]
Mass Ratio to HALON™ 1211: 1.00
Ext. Conc. (vol %): 3.6 vol %

FC(F)(F)I [Comparative Example C2, iodotrifluoromethane, reference compound]
Mass Ratio to HALON™ 1211: 1.14
Ext. Conc. (vol %): 3.5 vol %

FC(F)(F)CC(F)(F)F [Comparative Example C3, 1,1,1,3,3,3-hexafluoropropane, reference compound]
Mass Ratio to HALON™ 1211: 1.61
Ext. Conc. (vol %): 6.3 vol %

FC(C(F)(F)F)C(F)(F)F [Comparative Example C5, 1,1,1,2,3,3,3-heptafluoropropane, reference compound]
Mass Ratio to HALON™ 1211: 1.90
Ext. Conc. (vol %): 6.6 vol %

FC(F)(F)C(F)(F)C(F)(F)F [Comparative Example C6, perfluoro-n-propane, reference compound]
Mass Ratio to HALON™ 1211: 2.05
Ext. Conc. (vol %): 6.5 vol %

FC(F)(F)C(F)(F)C(F)(F)C(F)(F)F [Comparative Example C7, perfluoro-n-butane, reference compound]
Mass Ratio to HALON™ 1211: 2.12
Ext. Conc. (vol %): 5.3 vol %

FC(F)(F)C(F)(F)C(F)(F)C(F)(F)C(F)(F)C(F)(F)F [Comparative Example C8, perfluoro-n-hexane, reference compound]
Mass Ratio to HALON™ 1211: 2.27
Ext. Conc. (vol %): 4.0 vol %

COC(F)(C(F)(F)F)C(F)(C(F)(F)F)C(F)(F)F (stereo not shown) [Comparative Example C9, 1,1,1,2,3,4,4,4-octafluoro-3-trifluoromethyl-2-methoxybutane, reference compound]
Mass Ratio to HALON™ 1211: 2.27
Ext. Conc. (vol %): 4.5 vol %

COC(F)(F)C(F)(F)C(F)(F)C(F)(F)F [Comparative Example C10, perfluorobutyl Methyl Ether, reference compound]
Mass Ratio to HALON™ 1211: 2.52
Ext. Conc. (vol %): 6.1 vol %

COC(F)(F)C(F)(F)C(F)(F)F [Comparative Example C11, 1,1,1,2,2,3,3-heptafluoro-3-methoxypropane, reference compound]
Mass Ratio to HALON™ 1211: 2.52
Ext. Conc. (vol %): 7.5 vol %

CC(=O)C(F)(C(F)(F)F)C(F)(F)F [Comparative Example C12, 3,4,4,4-tetrafluoro-3-trifluoromethylbutan-2-one, reference compound]
Mass Ratio to HALON™ 1211: 2.42
Ext. Conc. (vol %): 6.8 vol %

CC(=O)C(F)(F)C(F)(F)C(F)(F)C(F)(F)F [Comparative Example C13, perfluorobutyl methyl ketone, reference compound]
Mass Ratio to HALON™ 1211: 2.77
Ext. Conc. (vol %): 6.3 vol %

O=C(C(F)(C(F)(F)F)C(F)(F)F)C(F)(C(F)(F)F)C(F)(F)F [Example 2, 1,1,1,2,4,5,5,5,6,6,6-octafluoro-2,4-bis(trifluoromethyl)pentan-3-one]
Mass Ratio to HALON™ 1211: 2.03
Ext. Conc. (vol %): 3.3 vol %

O=C(C(F)(F)F)C(F)(F)C(F)(F)C(F)(F)C(F)(F)C(F)(F)C(F)(F)F [Example 4, 1,1,1,3,3,4,4,5,5,6,6,7,7,8,8,8-hexadecafluorooctan-2-one]
Mass Ratio to HALON™ 1211: 2.17
Ext. Conc. (vol %): 3.1 vol %

O=C(C(F)(F)F)C(F)(C(F)(F)F)C(F)(F)F [Example 5, 1,1,1,3,4,4,4-heptafluoro-3-trifluoromethylbutan-2-one]
Mass Ratio to HALON™ 1211: 2.19
Ext. Conc. (vol %): 4.9 vol %

O=C(C(F)(F)C(F)F)C(F)(C(F)(F)F)C(F)(F)F [Example 6, 1,1,1,2,4,4,5,5-octafluoro-2-trifluoromethylpentan-3-one]
Mass Ratio to HALON™ 1211: 2.20
Ext. Conc. (vol %): 4.4 vol %

O=C(C(F)(F)C(F)(F)C(F)(F)F)C(F)(C(F)(F)F)C(F)(F)F [Example 7, 1,1,1,2,4,4,5,5,6,6,6-undecafluoro-2-trifluoromethylhexan-3-one]
Mass Ratio to HALON™ 1211: 2.21
Ext. Conc. (vol %): 3.6 vol %

O=C(C(F)(F)Cl)C(F)(C(F)(F)F)C(F)(F)F [Example 8, 1-chloro-1,1,3,4,4,4-hexafluoro-3-trifluoromethyl-butan-2-one]
Mass Ratio to HALON™ 1211: 2.23
Ext. Conc. (vol %): 4.7 vol %

O=C(C(F)(F)C(F)(F)F)C(F)(F)C(F)(F)C(F)(F)F [Example 9, 1,1,1,2,2,4,4,5,5,6,6,6-dodecafluorohexan-3-one]
Mass Ratio to HALON™ 1211: 2.39
Ext. Conc. (vol %): 4.5 vol %

O=C(CC(=O)C(F)(F)F)C(F)(F)F [Example 10, 1,1,1,5,5,5-hexafluoropentan-2,4-dione]
Mass Ratio to HALON™ 1211: 2.55
Ext. Conc. (vol %): 7.3 vol %

O=C(C(=O)C(F)(C(F)(F)F)C(F)(F)F)C(F)(C(F)(F)F)C(F)(F)F [Example 11, 1,1,1,2,5,6,6,6-octafluoro-2,5-bis(trifluoromethyl)hexan-3,4-dione]
Mass Ratio to HALON™ 1211: 2.57
Ext. Conc. (vol %): 4.0 vol %

O=C(C(F)(F)C(F)(F)C(F)(F)F)C(F)(F)C(F)(F)C(F)(F)F [Example 12, 1,1,1,2,2,3,3,5,5,6,6,7,7,7tetradecafluoroheptan-4-one]
Mass Ratio to HALON™ 1211: 2.64
Ext. Conc. (vol %): 4.3 vol %

O=C(C(F)(F)F)C(F)(F)C(F)(F)F [Example 13, 1,1,1,3,3,4,4,4-octafluorobutan-2-one]
Mass Ratio to HALON™ 1211: 2.68
Ext. Conc. (vol %): 7.4 vol %

O=C(C(F)(F)C(F)(F)OC(F)(F)F)C(F)(C(F)(F)F)C(F)(F)F [Example 14, 1,1,2,2,4,5,5,5-octafluoro-1-trifluoromethoxy-4-trifluoromethylpentan-3-one]
Mass Ratio to HALON™ 1211: 2.76
Ext. Conc. (vol %): 4.3 vol %

O=C1C(F)(F)C(F)(F)C(F)(F)C(F)(F)C1(F)F [Example 15, decafluorocyclohexanone]
Mass Ratio to HALON™ 1211: 2.80
Ext. Conc. (vol %): 6.0 vol %

O=C(C(F)(F)C(F)(F)C(F)(F)C(F)(F)F)C(F)(C(F)(F)F)C(F)(F)F [Example 16, 1,1,1,2,4,4,5,5,6,6,7,7,7-tridecafluoro-2-trifluoromethylheptan-3-one]
Mass Ratio to HALON™ 1211: 3.00
Ext. Conc. (vol %): 4.3 vol %
